We go through 38 molecules from ChEMBL document CHEMBL4483862, “Open-source discovery of chemical leads for next-generation chemoprotective antimalarials” (2018).

By IC50 is commonly meant the concentration that inhibits the measured activity by half. For orientation: IC90 means the concentration needed for an effect of 90%.

The subject of the assay is Plasmodium berghei. Description: Luciferase/luciferin-expressing antifolate-resistant parasites were used to infect a culture of HepG2 cells that were pre-incubated with compounds. Infected hepatocytes emit light due to the luciferase reaction. Assay results are presented as the percent inhibition of light emission compared to control. […]. In kind it is functional. To be noted: sporozoite; for IC90: read-out: LUCIFERASE INFECTION ASSAY - IC90.

The mark [1] stands for this setting: read-out: LUCIFERASE INFECTION ASSAY - IC50.

With `CCCCNC(=O)c1c(NC(=O)c2ccc(C(F)(F)F)cc2)nc2ccccn12`, the IC90 came out at 0.365 µM. In addition, where the note is “FFLUC_HILL_SLOPE 8.16, FFLUC_R_SQUARED 0.656, HEPG2TOX_HILL_SLOPE 0.864, HEPG2TOX_R_SQUARED 0.784, PBLUC_HILL_SLOPE 12.7, PBLUC_R_SQUARED 0.564, read-out: LUCIFERASE INFECTION ASSAY - IC50”, the IC50 came out at 0.306 µM.

As to `c1ccc(CNc2nccc3[nH]c(-c4ccccc4)nc23)cc1`, the IC90 stood at 7.44 µM. Moreover, where the note is “HEPG2TOX_HILL_SLOPE 2.3, HEPG2TOX_R_SQUARED 0.763, PBLUC_HILL_SLOPE 1.79, PBLUC_R_SQUARED 0.522, read-out: LUCIFERASE INFECTION ASSAY - IC50”, the IC50 amounted to 2.19 µM.

For `N=C(NS(=O)(=O)c1ccc(Cl)c(Cl)c1)c1ccc(Cl)cc1`, the IC90 is greater than 9.07 µM. Besides, the IC50 under setting [1] is greater than 9.07 µM.

Consider `Cc1cc(C)n(-c2ccc([N+](=O)[O-])cc2S(=O)(=O)N(CC(=O)N2CCCc3ccccc32)c2ccc(Cl)cc2)n1`, for which the concentration for an effect of 90% (IC90) was determined as 4.71 µM. Further, the IC50 (FFLUC_HILL_SLOPE 9.12, FFLUC_R_SQUARED 0.891, HEPG2TOX_HILL_SLOPE 1.68, HEPG2TOX_R_SQUARED 0.248, PBLUC_HILL_SLOPE 7.9, PBLUC_R_SQUARED 0.762, read-out: LUCIFERASE INFECTION ASSAY - IC50) came out at 3.56 µM.

Consider `O=C(COc1ccccc1)Nc1nc2ccccn2c1C(=O)NC1CCCC1`, for which the IC90 was greater than 8.72 µM. Further, the IC50 (PBLUC_HILL_SLOPE 2.22, PBLUC_R_SQUARED 0.0336, read-out: LUCIFERASE INFECTION ASSAY - IC50) came to 7.18 µM.

Take `Cc1ccc(NC(=O)c2cnn(C(C)(C)C)c2C)cc1F`: the IC90 came out at 6.02 µM. Moreover, the IC50 (FFLUC_HILL_SLOPE 1.31, FFLUC_R_SQUARED 0.708, PBLUC_HILL_SLOPE 0.501, PBLUC_R_SQUARED 0.734, read-out: LUCIFERASE INFECTION ASSAY - IC50) was determined as 0.0753 µM.

With `COc1ccc(C(=O)Nc2nc3ccc(C)cn3c2C(=O)NC2CCCCC2)cc1`, the IC90 amounted to 3.1 µM. Besides, the IC50 (FFLUC_HILL_SLOPE 17.6, FFLUC_R_SQUARED 0.155, HEPG2TOX_HILL_SLOPE 2.69, HEPG2TOX_R_SQUARED 0.972, PBLUC_HILL_SLOPE 14.3, PBLUC_R_SQUARED 0.423, read-out: LUCIFERASE INFECTION ASSAY - IC50) turned out to be 2.66 µM.

Take `CC(C)(C)c1ccc(C(=O)NNC(=S)Nc2cccc(C(F)(F)F)c2)cc1`: the IC90 was greater than 8.34 µM. Besides, the IC50 under setting [1] is 7.4 µM.

For the molecule `COc1ccccc1-c1ccc2ncc(-c3cccc(C(C)=O)c3)n2n1`, the IC90 worked out at 8.88 µM. For the same molecule, the IC50 (HEPG2TOX_HILL_SLOPE 0.183, HEPG2TOX_R_SQUARED 0.285, PBLUC_HILL_SLOPE 2.88, PBLUC_R_SQUARED 0.586, read-out: LUCIFERASE INFECTION ASSAY - IC50) was 4.14 µM.

Consider `COc1cccc2cc(/C=C/c3nc4ccccc4s3)oc12`, for which the IC90 was 4.1 µM. The IC50 (PBLUC_HILL_SLOPE 8.93, PBLUC_R_SQUARED 0.0906, read-out: LUCIFERASE INFECTION ASSAY - IC50) was 3.2 µM.

As for `CC(C)NC(=O)NCc1ccc(C(=O)OCC(=O)C(C#N)=C2Nc3ccccc3N2)cc1`, the IC90 stood at 6.88 µM. The IC50 (PBLUC_HILL_SLOPE 2.52, PBLUC_R_SQUARED 0.605, read-out: LUCIFERASE INFECTION ASSAY - IC50) stood at 2.88 µM.

`C=CCSc1nnc(-c2ccc(C(C)(C)C)cc2)n1-c1ccc(C(C)C)cc1`: the IC90 was greater than 8.43 µM. Also, the half-maximal inhibitory concentration (IC50) (HEPG2TOX_HILL_SLOPE 6.39, HEPG2TOX_R_SQUARED 0.425, PBLUC_HILL_SLOPE 3, PBLUC_R_SQUARED 0.616, read-out: LUCIFERASE INFECTION ASSAY - IC50) was greater than 8.43 µM.

Consider `OCc1ccc(-c2cn3c(-c4cccc(Cl)c4)cnc3cn2)cc1`, for which the IC90 was greater than 9.83 µM. Besides, under “PBLUC_HILL_SLOPE 0.56, PBLUC_R_SQUARED 0.237, read-out: LUCIFERASE INFECTION ASSAY - IC50”, the IC50 was greater than 9.83 µM.

`Cc1ccc2nc(NC(=O)COCc3ccccc3)c(C(=O)NC3CCCCC3)n2c1`: the IC90 was greater than 7.85 µM. Further, the IC50 under setting [1] was greater than 7.85 µM.

`CN1CCN(c2ccccc2/C=N\Nc2cc(Cl)ccc2Cl)CC1`: the IC90 was greater than 9.08 µM. In addition, the IC50 (PBLUC_HILL_SLOPE 2.04, PBLUC_R_SQUARED 0.6, read-out: LUCIFERASE INFECTION ASSAY - IC50) was determined as 3.92 µM.

Take `CC(C)n1ncc2c(C(=O)N3CCN(CC(=O)N4CCCC4)CC3)cc(-c3ccccc3)nc21`: the IC90 turned out to be 5.42 µM. Moreover, the IC50 (PBLUC_HILL_SLOPE 8.22, PBLUC_R_SQUARED 0.426, read-out: LUCIFERASE INFECTION ASSAY - IC50) turned out to be 4.15 µM.

With `O=C(/C=C/c1ccc([N+](=O)[O-])s1)Nc1ccc(F)cc1F`, the IC90 is greater than 10 µM. Also, the IC50 under setting [1] was found to be 8.88 µM.

Regarding `CC(C)=CC(=O)Nc1scc(-c2ccccc2)c1C(=O)OCC(=O)Nc1ccc([N+](=O)[O-])cc1Cl`, the IC90 was greater than 10 µM. Moreover, the IC50 (HEPG2TOX_HILL_SLOPE 0.0482, HEPG2TOX_R_SQUARED 0.161, PBLUC_HILL_SLOPE 2.32, PBLUC_R_SQUARED 0.465, read-out: LUCIFERASE INFECTION ASSAY - IC50) was determined as 5.35 µM.

As for `CCOC(=O)c1c(NC(=O)C(C)N2CCN(C(=O)c3ccco3)CC2)sc2c1CCCC2` (stereo unspecified), the IC90 is greater than 10 µM. In addition, under “PBLUC_HILL_SLOPE 16.5, PBLUC_R_SQUARED 0.188, read-out: LUCIFERASE INFECTION ASSAY - IC50”, the IC50 came to 9.7 µM.

Take `CC(C)c1nc(N2CCN(C)CC2)c(C#N)c2c1CCCC2`: the IC90 was greater than 11.1 µM. Also, the IC50 (FFLUC_HILL_SLOPE 0.534, FFLUC_R_SQUARED 0.16, read-out: LUCIFERASE INFECTION ASSAY - IC50) is greater than 11.1 µM.

`CC(C)CC(N)c1csc(NC(=O)Nc2ccc(F)c(Cl)c2)n1` (stereo unspecified): the IC90 is greater than 9.25 µM. The IC50 under setting [1] was greater than 9.25 µM.

Turning to `N#Cc1ccc(C(=O)Nc2cccc(Oc3ccccc3)c2)cc1`, the IC90 is greater than 10 µM. For the setting “PBLUC_HILL_SLOPE 3.19, PBLUC_R_SQUARED 0.12, read-out: LUCIFERASE INFECTION ASSAY - IC50”, the IC50 came out at 6.33 µM.

With `Cc1nc(Sc2ncnc3c(Br)cccc23)sc1CC(N)=O`, the IC90 is greater than 10 µM. For the same molecule, the IC50 under setting [1] was greater than 10 µM.

`O=C(Nc1ccccc1)Nc1ccc(Sc2cccs2)cc1`: the IC90 stood at 8.94 µM. Besides, for the setting “HEPG2TOX_HILL_SLOPE 12.6, HEPG2TOX_R_SQUARED 0.73, PBLUC_HILL_SLOPE 4.46, PBLUC_R_SQUARED 0.693, read-out: LUCIFERASE INFECTION ASSAY - IC50”, the IC50 turned out to be 5.46 µM.

As for `CCOc1ccc(S(=O)(=O)Nc2cccc(C(=O)N3CCN(c4ccccn4)CC3)c2)cc1`, the IC90 is greater than 10 µM. The IC50 under setting [1] is greater than 10 µM.

For `Cc1ccc2nc(COc3ccc(C(=O)NC4(C)CCS(=O)(=O)C4)cc3)cn2c1` (stereo unspecified), the IC90 is greater than 10 µM. Moreover, the IC50 under setting [1] was greater than 10 µM.

On to `CO/N=C1\CCCc2c(C(=O)NNS(=O)(=O)c3ccccc3Cl)sc(SC)c21`, for which the IC90 was greater than 7.17 µM. Under setting [1], the IC50 was greater than 7.17 µM.

With `O=C1NC(=O)/C(=C/c2cccc(C#Cc3ccccc3)c2)S1`, the IC90 is greater than 10.8 µM. Also, the IC50 (PBLUC_HILL_SLOPE 1.96, PBLUC_R_SQUARED 0.068, read-out: LUCIFERASE INFECTION ASSAY - IC50) amounted to 6.6 µM.

With `O=C(CN1CC=C(c2c[nH]c3ccccc23)CC1)Nc1cccc(F)c1`, the IC90 was greater than 10 µM. Under “PBLUC_HILL_SLOPE 2.56, PBLUC_R_SQUARED 0.252, read-out: LUCIFERASE INFECTION ASSAY - IC50”, the IC50 amounted to 6.56 µM.

On to `CCC(CO)Nc1ccc2ncc(Br)n2n1` (stereo unspecified), for which the IC90 was greater than 11.6 µM. Further, the IC50 (HEPG2TOX_HILL_SLOPE 18.2, HEPG2TOX_R_SQUARED 0.907, PBLUC_HILL_SLOPE 0.763, PBLUC_R_SQUARED 0.712, read-out: LUCIFERASE INFECTION ASSAY - IC50) stood at 4.83 µM.

Consider `NC(Cc1ccc(C(F)(F)F)cc1)c1csc(NC(=O)Nc2ccccc2Cc2ccccc2)n1` (stereo unspecified), for which the 90% effect concentration (IC90) was 6.33 µM. Further, where the note is “PBLUC_HILL_SLOPE 25.9, PBLUC_R_SQUARED 0.261, read-out: LUCIFERASE INFECTION ASSAY - IC50”, the IC50 was 5.82 µM.

As to `Cc1ccc(Oc2ccc(NC(=O)c3cc(C)on3)cc2)cc1`, the IC90 came to 4.67 µM. Under “PBLUC_HILL_SLOPE 2.32, PBLUC_R_SQUARED 0.861, read-out: LUCIFERASE INFECTION ASSAY - IC50”, the IC50 was found to be 1.81 µM.

`CC(=O)c1ccc(NC(=O)Cn2nc(-c3ccco3)ccc2=O)cc1`: the IC90 was greater than 9.78 µM. Further, the IC50 (FFLUC_HILL_SLOPE 14.3, FFLUC_R_SQUARED 0.29, read-out: LUCIFERASE INFECTION ASSAY - IC50) is greater than 9.78 µM.

Regarding `NC(=O)c1c(NC(=O)COC(=O)C2=NN(c3ccccc3)C(=O)CC2)sc2c1CCC2`, the IC90 was greater than 10 µM. For the same molecule, the IC50 under setting [1] is greater than 10 µM.

Regarding `CC(C)(C)c1ccc(C(=O)NCc2ccco2)cc1`, the IC90 is 10.4 µM. The IC50 (PBLUC_HILL_SLOPE 5.38, PBLUC_R_SQUARED 0.421, read-out: LUCIFERASE INFECTION ASSAY - IC50) was determined as 6.91 µM.

Take `CCOC(=O)c1c(S(=O)(=O)Nc2ccc([N+](=O)[O-])cc2)c(-c2ccccc2)n(-c2ccccc2)c1C`: the IC90 was greater than 6.53 µM. The IC50 (HEPG2TOX_HILL_SLOPE 0.2, HEPG2TOX_R_SQUARED 0.0818, PBLUC_HILL_SLOPE 2.97, PBLUC_R_SQUARED 0.542, read-out: LUCIFERASE INFECTION ASSAY - IC50) is greater than 6.53 µM.

With `Cc1noc2nc(C(C)C)cc(C(=O)Nc3nc4ccccc4[nH]3)c12`, the IC90 is greater than 10 µM. Also, under setting [1], the IC50 is greater than 10 µM.

Regarding `O=S(=O)(c1ccccc1)N1CN(c2ccc(N3CCOCC3)cc2)c2nc3ccccc3nc21`, the IC90 is greater than 10 µM. Under setting [1], the IC50 was greater than 10 µM.
